Patent US20110184188A1, “Insecticidal Benzenedicarboxamide Derivative” (priority 2008, published 2011)

Tests used:
Assay type in all cases: in vivo
[1] = system: Spodoptera litura third instar larvae; assay: Test to larva of Spodoptera litura (sweet potato leaf dip); conditions: foliar, 168 h; Spodoptera litura third instar larvae, active ingredient concentration 20 ppm, seven days later, 25° C.; read-out: insect mortality
Procedure: Test to Larva of Spodoptera litura
Solvent: dimethylformamide 3 parts by weight Emulsifier: polyoxyethylene alkyl phenyl ether 1 part by weight
In order to prepare preparations of suitable active compounds, 1 part by weight of each of the active compounds was blended with the above amount of the solvent containing the above amount of the emulsifier, and the resulting mixture was diluted to a prescribed concentration with water.
Leaves of sweet potato were immersed in the tested liquid medication of a prescribed concentration diluted with water. After air drying of the liquid medication, the leaves were put into a petri dish of a diameter of 9 cm, and 10 Spodoptera litura third instar larvae were released in the petri dish, and the petri dish was placed in a constant temperature room of 25° C. Two days later and four days later, leaves of sweet potato were added. Seven days later, the number of dead insects was examined, and insect mortality was calculated.
In the present test, results of 2 petri dishes for each compound were averaged.

Lucilia cuprina = assay: Test to Lucilia cuprina (larvae on horse minced meat); conditions: effective ingredient concentration 100 ppm, read-out: insecticide activity (mortality)
Procedure: (§1) Solvent: dimethylsulfoxide
(§2) In order to prepare preparations of suitable active compounds, 10 mg of each of the active compounds was dissolved into 0.5 ml of the above solvent, and the resulting mixture was diluted to a prescribed concentration with water.
About 20 to 30 larvae of Lucilia cuprina were put into the test tube in which 1 cm^3 of horse minced meat and 0.5 ml of the aqueous solution of the compound prepared in the above were put. After a fixed time passed, the mortality of the Lucilia cuprina was obtained. 100% mortality means that all the individuals were dead, and 0% mortality means that all the individuals were alive.

Musca domestica = assay: Test to Musca domestica (adults, sugar sponge); conditions: effective ingredient concentration 100 ppm, read-out: insecticide activity (mortality)
Procedure: as §1, §2
As a preparative stage of the test, a fixed size of sponge was soaked in a mixture of sugar and the compound aqueous solution prepared in the above, and was placed in a test container. Ten adults of Musca domestica were put into the container, and the container was closed with a cap having ventilation holes. After a fixed time passed, a mortality rate of Musca domestica was acquired. 100% mortality means that all the individuals were dead, and 0% mortality means that all the individuals were alive.

Row | SMILES | mortality at 20 ppm [1] [%] | mortality at 100 ppm (Lucilia cuprina) [%] | mortality at 100 ppm (Musca domestica) [%]
1 | CSC[C@H](C)NC(=O)c1c(Br)cccc1C(=O)Nc1ccc(Cn2cc(C(F)(F)C(F)(F)F)c(C(F)(F)C(F)(F)F)n2)cc1C [13-132, N^1-(4-{[3,4-bis(pentafluoroethyl)-1H-pyrazol-1-yl]methyl}-2-methylphenyl)-3-bromo-N^2-[(1S)-1-methyl-2-(methylthio)ethyl]-1,2-benzenedicarboxamide] | 100 | ≥ 80 | ≥ 70
2 | Cc1cc(Cn2cc(C(F)(F)C(F)(F)F)c(C(F)(F)C(F)(F)F)n2)ccc1NC(=O)c1cccc(Br)c1C(=O)N[C@@H](C)C[S+](C)[O-] (stereo partly drawn) [13-137, N^1-(4-{[3,4-bis(pentafluoroethyl)-1H-pyrazol-1-yl]methyl}-2-methylphenyl)-3-bromo-N^2-[(1S)-1-methyl-2-(methylsulfinyl)ethyl]-1,2-benzenedicarboxamide] | 100 | ≥ 80 | ≥ 70
